Assay results from patent US20180369230A1, “TARGETED SELECTION OF PATIENTS FOR TREATMENT WITH SPECIFIC CORTISTATIN DERIVATIVES” (President and Fellows of Harvard College, priority 2015, published 2018).

Key:
RUNX1 = RUNX1 recruitment to genomic loci; assay type: cell-based; conditions: FIG. 11
RUNX1 target genes = test: Determination of gene expression levels; assay type: cell-based, human; conditions: SET-2, MOLM-14 and MV4;11
Description: Leukemia cells were plated (12-well) in triplicate at 500,000-800,000 cells per ml and incubated in the presence of vehicle (0.1% DMSO) or CA (25 nM 3 h for K562, MOLM-14 and MV4;11; 10 nM 24 h for MOLM-14; 25 nM 4 h for SET-2, n=3 for each cell line). Cells were then washed twice with cold PBS, and snap frozen. RNA was isolated (RNeasy Plus Microkit, Qiagen or TRIzol, Life Technologies), processed, and, for K562, MOLM-14 and MV4;11, hybridized to the Human U133 Plus 2.0 microarray (Affymetrix). Microarrays were processed with Bioconductor packages affyQCReport for quality control and affy for background correction, summarization, and normalization using rma. […] SET-2 and HCT 116 gene expression was measured by RNA-seq. […] Reads were aligned in two passes, first with rnaStar (v.2.3.0e) then with BWA (v.0.7.5a) for remaining unmapped reads, both using default parameters. Mapped reads were merged and counted using HTSeq (v.0.5.3p3) with -s yes -m intersection-strict. […] Samples were run in a single lane on an Illumina HiSEQ 2000 sequencer with a single read flow cell using 1×50-bp reads and a 6-cycle index read. Reads were mapped to the hg19 reference genome using Tophat2 v.2.0.6 with custom settings including the setting of -library-type fr- firstrand to appropriately account for the stranded nature of the protocol. […]

SET-2 cells = test: Gene expression, gene set enrichment analysis (GSEA); assay type: cell-based, human; conditions: SET-2, 4 h 25 nM
Description: (§1) Leukemia cells were plated (12-well) in triplicate at 500,000-800,000 cells per ml and incubated in the presence of vehicle (0.1% DMSO) or CA (25 nM 3 h for K562, MOLM-14 and MV4;11; 10 nM 24 h for MOLM-14; 25 nM 4 h for SET-2, n=3 for each cell line). Cells were then washed twice with cold PBS, and snap frozen. RNA was isolated (RNeasy Plus Microkit, Qiagen or TRIzol, Life Technologies), processed, and, for K562, MOLM-14 and MV4;11, hybridized to the Human U133 Plus 2.0 microarray (Affymetrix). Microarrays were processed with Bioconductor packages affyQCReport for quality control and affy for background correction, summarization, and normalization using rma. Probe sets present in at least 1 sample (based on affy mas5call) and for which the interquartile range was >log2(1.2) were retained for further analysis. The limma Bioconductor package was used for differential expression analysis of CA-treated versus DMSO control samples (Benjamini-Hochberg adjusted P<0.05). SET-2 and HCT 116 gene expression was measured by RNA-seq. SET-2 RNA-seq libraries were prepared and processed using the Ion Torrent workflow. Reads were aligned in two passes, first with rnaStar (v.2.3.0e) then with BWA (v.0.7.5a) for remaining unmapped reads, both using default parameters. Mapped reads were merged and counted using HTSeq (v.0.5.3p3) with -s yes -m intersection-strict. The Bioconductor package DESeq was used for DE analysis (FDR<0.05 and twofold change) and normalization. HCT116 cells were grown to approximately 80% confluence and were treated with either 100 nM CA or DMSO for 3 h (n=3). Cells were then washed twice with cold PBS and scraped into TRIzol reagent (Life Technologies). After collecting the RNA, it was further purified using an RNeasy mini kit (Qiagen) with an on-column DNase I digestion. Libraries for Illumina sequencing were generated via the Illumina TruSEQ stranded mRNA prep kit. Samples were run in a single lane on an Illumina HiSEQ 2000 sequencer with a single read flow cell using 1×50-bp reads and a 6-cycle index read. Reads were mapped to the hg19 reference genome using Tophat2 v.2.0.6 with custom settings including the setting of -library-type fr- firstrand to appropriately account for the stranded nature of the protocol. HTSeq v.0.6.1 was used to obtain read counts over annotated genes and differentially expressed genes were called by DESeq v.1.10.1 with a padj value of less than 0.01. Counts were normalized for GSEA using the limma voom function. Expression data for the I-BET151 comparison were downloaded from ArrayExpress (https://www.ebi.ac.uk/arrayexpress, accession E-MTAB-774) and processed files used as is. Gene lists were submitted to the DAVID web server (http://david.abcc.ncifcrf.gov) for functional annotation. GSEA version 2.09 was carried out using signal-to-noise on natural values as the metric. Signatures included curated gene sets (C2, v.3) downloaded from the Broad's MSigDB as well as signatures curated from in-house and published data sets.
(§2) The curated gene sets were analyzed together with over 4,000 signatures including the Broad Molecular Signatures database (C2).

MOLM-14 cells = test: as above; assay type: cell-based, human; conditions: MOLM-14, 3 h 25 nM
Description: as §1, §2

MV4;11-mCLP leukemia = test: MV4;11 xenograft model; assay type: in vivo, mice
Description: The MV4;11 xenograft model was performed as previously described (Etchin, J. et al. Antileukemic activity of nuclear export inhibitors that spare normal hematopoietic cells. Leukemia 27, 66-74 (2013)). Two-million MV4;11-mCLP cells were injected into the tail vein of 7-week-old female non-obese diabetic-severe combined immuno-deficient (NOD-SCID)Il2rg^−/− (NSG) mice (The Jackson Laboratory) and tumour burden was assessed by bioluminescence imaging (BLI) using an IVIS Spectrum system (Caliper Life Sciences). Seven days after injection, leukaemia establishment was documented by BLI and mice were assigned to groups to achieve a similar mean BLI and treated intraperitoneally with vehicle (20% hydroxypropyl-β-cyclodextrin) or CA once daily for 15 days. After 30 days, blood counts were obtained (Hemavet 950 F, Drew Scientific) and spleen, femur and peripheral blood cells were collected and analysed by flow cytometry (LSR Fortessa, BD Biosciences) from three mice per group, having the highest, lowest and median BLI value. […]
(§3) Samples from all organs were then dissected and placed in nine cassettes per mouse. […] Survival was measured as the time from therapy initiation until moribund state. […]
as §3

[1] = tested on: ruxolitnib persistence cells; test: Growth inhibition in ruxolitinib persistent cells; assay type: cell-based; conditions: FIG. 5 legend; read-out: G150 in ruxolitnib persistence cells

Cortistatin A
RUNX1 recruitment to loci (RUNX1): recruited | expression of RUNX1 target genes including CEBPA, IRF8 and NFE2 (RUNX1 target genes): upregulated | NES (SET-2 cells; signature: GATA1/GATA2/RUNX1/FLI1/SCL Binding Sites in Mks): 2.03 | NES (SET-2 cells; signature: GATA1/SCL Binding sites in Mks): 2.27 | NES (MOLM-14 cells; signature: Downregulated by RUNX1-RUNX1T1 in CD34+ cord blook cells): 2.50 | NES (MOLM-14 cells; signature: Downregulated by RUNX1 knowckdown in Jurkat cells): 2.00 | NES (MOLM-14 cells; signature: Downregulated by RUNX1 knowckdown in Kasumi-1 cells): 2.21 | NES (MOLM-14 cells; signature: Upregulated by C/EBPα in Burkitt lymphoma cells): 2.56 | NES (MOLM-14 cells; signature: Upregulated by C/EBPα in K562 cells): 2.22 | NES (MOLM-14 cells; signature: Upregulated by C/EBPα in KCL22 cells): 2.22 | NES (MOLM-14 cells; signature: Upregulated by RUNX1-RUNX1T1 knockdown in Kasumi-1 cells): 2.78 | leukemia cells in the lungs (haematoxylin and eosin staining) (MV4;11-mCLP leukemia; MV4;11 AML mice, Day 30, vs vehicle): fewer leukemia cells in the lungs | spleen weight (MV4;11-mCLP leukemia; NSG mice, disseminated MV4;11-mCLP leukemia, once daily IP for 15 days, 15 days after stopping treatment): prevents spleen weight increase | IC50 [1]: 2 to 10 nM
